Test results reported in US8168770B2, “Cloning, sequencing and expression of a gene encoding an eukaryotic amino acid racemase, and diagnostic, therapeutic, and vaccination applications of parasite and viral mitogens” (priority 1999, dated 2012).
Entries after “also recorded” stand apart in the source; their conditions may differ.

Legend:
[1] = system: splenocytes from BALB/c mice; experiment: In vitro proliferation assay of splenocytes (3H-thymidine uptake); type: cell-based, mouse; conditions: for mitogenic activity of rTcPA45 in cultures supplemented with substrate: 50 μg/ml rTcPA45, increasing amounts of L- or D-proline, 3 mM to 50 mM; for cell proliferation with substrate alone: 50 mM L- or D-proline alone; for mitogenic activity of rTcPA45 pre-incubated with inhibitor: 50 μg/ml rTcPA45 pre-incubated 10 min at 37° C. with 1 mM inhibitor; for 3H-thymidine uptake: after 48 h, ConA 10 μg/ml, LPS 5 μg/ml, 5×10^4 cells/well
Method: Briefly, freshly recovered splenocytes from 8 week old male Balb/c mice seeded at a concentration of 5×10^4 cells/well were incubated for 24, 48 and 72 h in 5% FCS RPMI-1640 medium. A 16 h ^3H-thymidine pulse at 1 μCi/well was performed before harvesting. ^3H-Thymidine uptake was determined in a beta-plate liquid scintillation counter (LKB-Wallac). All points were done in triplicate and the corresponding standard deviation calculated. For comparison, ^3H-thymidine uptake after 48 h in the presence of ConA (10 μg/ml) and LPS (5 μg/ml) was 32000 c.p.m. and 3500 c.p.m., respectively. T-cell depletion was performed by incubating freshly recovered spleen cells for 30 min at 37° C. in the presence of anti-Thy 1.2 monoclonal antibody (Cedarlane) and rabbit complement (Cedarlane). In order to rule out a possible mitogenic effect due to LPS contamination in samples, proliferation assays were also performed on freshly recovered splenocytes from the LPS non-responder mouse strain C3H/Hej. Same levels of proliferation were verified. Balb/c mice were purchased from Charles River, France. C3H/Hej mice were maintained in our animal facilities.
In vitro proliferation is accomplished using freshly recovered splenocytes from BALB/c mice seeded at a density of 5×10^4 cells/well and incubated for 24, 48 and 72 h with increasing concentrations of total parasite supernatants or recombinant TcPa45 protein or other mitogen (0.07-200 μg/ml) with 0.5 μg/ml of the HPLC fractions, or with the conventionally used mitogens concanavalin A (10 μg/ml) and lipopolysaccharide (5 μg/ml) in 5% FCS in RPMI-1640 complete medium. T-cell depletion is accomplished by incubating freshly recovered spleen cells for 30 min. at 37° C. in the presence of monoclonal antibodies against Thy 1.2 and rabbit complement (Cedarlane, Le Perray en Yvelines, France). Analysis of proliferative activity of total splenocytes (5×10^4 cells/well) in the presence of 50 μg/ml enzymatically active rTcPA45 or other mitogen is also compared with the proliferation obtained using the same amounts of rTcPA45 protein or other mitogen lacking racemase activity (by heating for 10 min. at 30° C. or by long term storage at 4° C.). Inhibition of proliferation is obtained by adding to the splenocyte cultures 50 μg/ml rTcPA45 or other mitogen pre-incubated for 10 min. at 37° C. with 1 mM inhibitor, either specific (pyrrole-2-carboxylic acid) or nonspecific (iodoacetamide or iodoacetate). Competitive assays of proliferative activity by 50 μg/ml rTcPA45 or other mitogen are done by adding increasing concentrations of specific substrates i.e., proline racemase substrates (L- or D-proline) for the mitogen rTcPA45 ranging from 3 mM to 50 mM. Controls include the incubation of splenocytes (5×10^4 cells/well) with substrate alone, i.e., 50 mM L- or D-proline in RPMI medium alone for prline racemase. Cultures are collected after a 16-hour pulse or 1 μCi/well ^3H-thymidine uptake was determined in a beta-plate liquid scintillation counter (LKB-Wallac, Orsay, France). All data points are obtained in triplicate and the corresponding standard deviation is calculated.
5×10^5 naive spleen cells/well (96 well plate) were stimulated in vitro with different doses of rTcPA45 (ranging in FIG. 4b from 0.8 to 200 μg/ml final) for 24, 48 and 72 h, at 37° C., 5% CO2. Cultures were pulsed with ^3H-Thymidine (1 μCi/well) for 16-18 h before harvesting. ^3H-thymidine incorporation was obtained after counting using a beta-plate. Results present arithmetic means of c.p.m. (counts/minute) from 6 wells/dose of rTcPA45 or wells containing medium alone (+/−SD of the means).

rTcPA45 proline racemase = molecular target: T1, rTcPA45 proline racemase (Trypanosoma cruzi, UniProt Q4DA80); type: biochemical; conditions: inhibitors 6 mM to 100 mM
T1 construct: 6xHis (C); made in house; host or cells: E. coli (pET28b(+))
Method: To investigate the genomic organization and transcription of the Tc45 gene, Southern and Northern blot analyses were done. FIG. 4 depicts the results of characterization of rTcPA45 activities. FIG. 4, part a, is an 8% SDS-PAGE gel of rTcPA45 (Coomasie blue staining). Part b depicts the proliferative activity of total splenocytes (5×10^4 cells/well) in the presence of increasing concentrations of rTcPA45 (μg/ml). […] Reaction conditions were: 0.2 M Na-acetate/25 mM β-mercaptoethanol buffer, pH6, rTcPA45 (3 μg/ml), 30 min incubation at 37° C. in 500 μl. The reaction was stopped by incubating for 10 min at 80° C. […] Reactions were carried out for 30 min at 37° C. and stopped for 5 min at 80° C. All reagents and inhibitors were purchased from Sigma. The shift in optical rotation was measured in a Polarimeter 241 MC (Perkin Elmer).
A suitable test for testing an active molecule inhibiting the polypeptide according to the invention is performed as follows: • The recombinant amino acid purified or native racemase is diluted in sodium acetate buffer or Tris or phophate on Hepes buffer at 3 micrograms per 500 microliters in the presence of 20 millmolar of beta mercepto ethanol and 10 to 80 millimolar of L or D substrate and containing various concentrations of active molecule to be tested. This reaction is incubated for 30 minutes at 37° C. and stopped by heating at 80° C. Variations in optical rotation are measured by a polarimeter.
3 μg of rTcPA45 was diluted in 500 μl of buffer (0.2M NaOAc, 20 mM β-mercaptoethanol, pH6.0) containing different concentrations of the substrate (10-80 mM or L- or D-proline). (See FIG. 4c.) The reaction was incubated for 30-60 minutes at 37° C. in a water bath, followed by heat inactivation of the enzyme for 10 minutes at 80° C. Each sample is diluted to 1.5 ml with water and the mixture submitted to measurement of optical rotation using a polarimeter, at 365 nm. A sample without enzyme is used as a control. […]
The percent of racemization of different concentrations of L-proline, D-proline, L-hydroxy-proline and D-hydroxy-proline substrates was calculated by incubating a 500-μl mixture of 3 μg TcPA45 and 10-80 mM substrate in 0.2 M sodium acetate and 25 mM β-mercaptoethanol, pH 6, for 30 min at 37° C. […] Water (1 ml) was then added, and the optical rotation was measured in polarimeter 241 MC (Perkin Elmer, Montignyle Bretonneux, France) at a wavelength of 365 nm, in a cell with a path length of 10 cm. […] The percent racemization of 80 mM L-proline as a function of pH was determined using 0.2 M sodium acetate, potassium phosphate and Tris-HCl buffers containing 25 mM β-mercaptoethanol; reactions were incubated for 30 min at 37° C. as described above. […]

T1 sequence (Q4DA80 30-423): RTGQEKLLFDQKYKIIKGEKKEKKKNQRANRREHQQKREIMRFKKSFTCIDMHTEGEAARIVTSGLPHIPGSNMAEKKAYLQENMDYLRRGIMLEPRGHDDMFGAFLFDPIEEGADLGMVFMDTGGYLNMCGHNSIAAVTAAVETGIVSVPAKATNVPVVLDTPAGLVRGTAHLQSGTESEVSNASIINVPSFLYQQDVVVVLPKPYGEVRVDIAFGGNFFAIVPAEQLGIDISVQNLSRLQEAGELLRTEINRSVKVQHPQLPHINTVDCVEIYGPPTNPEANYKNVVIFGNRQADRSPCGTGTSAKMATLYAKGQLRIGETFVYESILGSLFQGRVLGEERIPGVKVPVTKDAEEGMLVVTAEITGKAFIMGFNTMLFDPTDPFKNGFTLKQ

Which “mitogenic activity of rTcPA45 in cultures supplemented with substrate” value [1] does the source give for `O=C(O)[C@H]1CCCN1` [D-proline] here?
Its value is “affected considerably; also recorded: decrease”.

And the “cell proliferation with substrate alone” value [1]?
Its value is “no cell proliferation”.

For `O=C(O)[C@@H]1CCCN1` [L-proline], which “mitogenic activity of rTcPA45 in cultures supplemented with substrate” value [1] is on record?
Its value is “affected considerably; also recorded: decrease”.

And the “cell proliferation with substrate alone” value [1]?
Its value is “no cell proliferation”.

`NC(=O)CI` [iodoacetamide] was tested. Which “mitogenic activity of rTcPA45 pre-incubated with inhibitor” value (“mitogenic activity … with inhibitor” below) [1] did it give?
Its value is “abolished”.

And the “inhibition of rTcPA45 enzymatic activity (racemization of 80 mM L-proline)” value (“inhibition of rTcPA45 enzymatic activity” for short) (rTcPA45 proline racemase)?
The value was “inhibited to different extents”.

For `O=C(O)CI` [iodoacetate], which “mitogenic activity … with inhibitor” value [1] is on record?
Its value is “abolished”.

What about the “inhibition of rTcPA45 enzymatic activity” value (rTcPA45 proline racemase) of the same molecule?
Its value is “inhibited to different extents”.

`O=C(O)/C=C\C(=O)O` [maleic acid] was tested. Which “inhibition of rTcPA45 enzymatic activity” value (rTcPA45 proline racemase) did it give?
The value was “inhibited to different extents”.

For `O=C(O)c1ccc[nH]1` [pyrrole-2-carboxylic acid], which “mitogenic activity … with inhibitor” value [1] is on record?
The value was “abolished”.

What about the “inhibition of rTcPA45 enzymatic activity” value (rTcPA45 proline racemase) of the same molecule?
The value was “inhibited to different extents”.

With concanavalin A [ConA] as the molecule, how does the 3H-thymidine uptake [1] read?
The 3H-thymidine uptake was 32000 c.p.m.

What about the 3H-thymidine uptake ([1]; listed as concavalin A) of the same molecule?
Its 3H-thymidine uptake is 32,000 c.p.m.

With lipopolysaccharide [LPS] as the molecule, how does the 3H-thymidine uptake [1] read?
Its 3H-thymidine uptake is 3500 c.p.m.

What about the 3H-thymidine uptake ([1]; listed as lipopolysaccharide) of the same molecule?
The 3H-thymidine uptake was 3,500 c.p.m.
